Measured values: publication PMC10501326, “A Phase I Study of the Pan-Notch Inhibitor CB-103 for Patients with Advanced Adenoid Cystic Carcinoma and Other Tumors” (Cancer Research Communications, 2023)
Values joined by “and” are separate entries in the source; they are usually repeats but may differ in a detail not shown here. Equal entries are not always repeated. Where two headings read alike, the source gives them in different places.

Assay: Plasma pharmacokinetics (LC/MS-MS)
Type: in vivo, human
Conditions: for half-life: SD, read-out: Plasma elimination half-life (t1/2) (converted)
Procedure: Plasma pharmacokinetics were assessed for CB-103 via blood samples taken on days 1 (predose, 0.5, 1, 2, 4, 6, 8 hours postdose ± 5 minutes, and 12 hours postdose ± 15 minutes), 2 (24-hour post-day 1, predose), 3 (predose), 8 (predose, 0.5, 1, 2, 4, 6, and 8 hour postdose ± 5 minutes), 9 (24-hour post-day 8, predose), 15, and 22 (predose, and 1 hour postdose) in cycle 1. In cycle 2, on day 1 (predose, 0.5, 1, 2, 6, and, 8 hours postdose ± 5 minutes) and 15 (predose); in cycles 3–6 once at each visit (predose or postdose). For a twice daily dose schedule, pharmacokinetic timepoints were adjusted to evaluate concentration-versus-time curves after morning and evening doses on days 1 and 8.
CB-103 concentrations were determined by validated high-performance LC/MS-MS method and analyzed descriptively using Phoenix WinNonlin v6.3 (Pharsight Corporation). Data at timepoints collected were used to generate a population pharmacokinetic model to estimate AUC and Cmax to associate with safety and efficacy.

CC(C)(C)c1ccc(Oc2ccc(N)cn2)cc1 [CB-103]
AUC (human, plasma, oral, 13 mg, Cohort 1 (13 mg), Cycle 1, Day 1, read-out: Mean AUC24): 174 ng·h/mL | Cmax (human, plasma, oral, 13 mg, Cohort 1 (13 mg), Cycle 1, Day 1, read-out: Mean Cmax): 44.4 ng/mL | AUC (human, plasma, oral, 13 mg, Cohort 1 (13 mg), Cycle 1, Day 8, read-out: Mean AUC24): 433 ng·h/mL | Cmax (human, plasma, oral, 13 mg, Cohort 1 (13 mg), Cycle 1, Day 8, read-out: Mean Cmax): 58.7 ng/mL | AUC (human, plasma, oral, 26 mg, Cohort 2 (26 mg), Cycle 1, Day 1, read-out: Mean AUC24): 220 ng·h/mL | Cmax (human, plasma, oral, 26 mg, Cohort 2 (26 mg), Cycle 1, Day 1, read-out: Mean Cmax): 53.7 ng/mL | AUC (human, plasma, oral, 52 mg, Cohort 3 (52 mg), Cycle 1, Day 1, read-out: Mean AUC24): 496 ng·h/mL | Cmax (human, plasma, oral, 52 mg, Cohort 3 (52 mg), Cycle 1, Day 1, read-out: Mean Cmax): 98.5 ng/mL | AUC (human, plasma, oral, 52 mg, Cohort 3 (52 mg), Cycle 1, Day 8, read-out: Mean AUC24): 999 ng·h/mL | Cmax (human, plasma, oral, 52 mg, Cohort 3 (52 mg), Cycle 1, Day 8, read-out: Mean Cmax): 154 ng/mL | AUC (human, plasma, oral, 104 mg, Cohort 4 (104 mg), Cycle 1, Day 1, read-out: Mean AUC24): 1440 ng·h/mL | Cmax (human, plasma, oral, 104 mg, Cohort 4 (104 mg), Cycle 1, Day 1, read-out: Mean Cmax): 368 ng/mL | AUC (human, plasma, oral, 104 mg, Cohort 4 (104 mg), Cycle 1, Day 8, read-out: Mean AUC24): 3690 ng·h/mL | Cmax (human, plasma, oral, 104 mg, Cohort 4 (104 mg), Cycle 1, Day 8, read-out: Mean Cmax): 418 ng/mL | AUC (human, plasma, oral, 148 mg, Cohort 5 (148 mg), Cycle 1, Day 1, read-out: Mean AUC24): 1260 ng·h/mL | Cmax (human, plasma, oral, 148 mg, Cohort 5 (148 mg), Cycle 1, Day 1, read-out: Mean Cmax): 482 ng/mL | AUC (human, plasma, oral, 148 mg, Cohort 5 (148 mg), Cycle 1, Day 8, read-out: Mean AUC24): 2830 ng·h/mL | Cmax (human, plasma, oral, 148 mg, Cohort 5 (148 mg), Cycle 1, Day 8, read-out: Mean Cmax): 427 ng/mL | AUC (human, plasma, oral, 217 mg, Cohort 6 (217 mg), Cycle 1, Day 1, read-out: Mean AUC24): 2620 ng·h/mL | Cmax (human, plasma, oral, 217 mg, Cohort 6 (217 mg), Cycle 1, Day 1, read-out: Mean Cmax): 731 ng/mL | AUC (human, plasma, oral, 217 mg, Cohort 6 (217 mg), Cycle 1, Day 8, read-out: Mean AUC24): 4250 ng·h/mL | Cmax (human, plasma, oral, 217 mg, Cohort 6 (217 mg), Cycle 1, Day 8, read-out: Mean Cmax): 912 ng/mL | AUC (human, plasma, oral, 250 mg, Cohort 9 (250 mg BID), Cycle 1, Day 1, read-out: Mean AUC24): 6140 ng·h/mL | Cmax (human, plasma, oral, 250 mg, Cohort 9 (250 mg BID), Cycle 1, Day 1, read-out: Mean Cmax): 1010 ng/mL | AUC (human, plasma, oral, 250 mg, Cohort 9 (250 mg BID), Cycle 1, Day 8, read-out: Mean AUC24): 11700 ng·h/mL | Cmax (human, plasma, oral, 250 mg, Cohort 9 (250 mg BID), Cycle 1, Day 8, read-out: Mean Cmax): 1310 ng/mL | AUC (human, plasma, oral, 300 mg, Cohort 10 (300 mg BID 5/2), Cycle 1, Day 1, read-out: Mean AUC24): 10400 ng·h/mL | Cmax (human, plasma, oral, 300 mg, Cohort 10 (300 mg BID 5/2), Cycle 1, Day 1, read-out: Mean Cmax): 1630 ng/mL | AUC (human, plasma, oral, 300 mg, Cohort 10 (300 mg BID 5/2), Cycle 1, Day 8, read-out: Mean AUC24): 11300 ng·h/mL | Cmax (human, plasma, oral, 300 mg, Cohort 10 (300 mg BID 5/2), Cycle 1, Day 8, read-out: Mean Cmax): 1390 ng/mL | AUC (human, plasma, oral, 348 mg, Cohort 7 (348 mg), Cycle 1, Day 1, read-out: Mean AUC24): 3520 ng·h/mL | Cmax (human, plasma, oral, 348 mg, Cohort 7 (348 mg), Cycle 1, Day 1, read-out: Mean Cmax): 1150 ng/mL | AUC (human, plasma, oral, 348 mg, Cohort 7 (348 mg), Cycle 1, Day 8, read-out: Mean AUC24): 6880 ng·h/mL | Cmax (human, plasma, oral, 348 mg, Cohort 7 (348 mg), Cycle 1, Day 8, read-out: Mean Cmax): 874 ng/mL | AUC (human, plasma, oral, 400 mg, Cohort 11 (400 mg BID 5/2), Cycle 1, Day 1, read-out: Mean AUC24): 14900 ng·h/mL | Cmax (human, plasma, oral, 400 mg, Cohort 11 (400 mg BID 5/2), Cycle 1, Day 1, read-out: Mean Cmax): 1620 ng/mL | AUC (human, plasma, oral, 400 mg, Cohort 11 (400 mg BID 5/2), Cycle 1, Day 8, read-out: Mean AUC24): 14100 ng·h/mL | Cmax (human, plasma, oral, 400 mg, Cohort 11 (400 mg BID 5/2), Cycle 1, Day 8, read-out: Mean Cmax): 2400 ng/mL | AUC (human, plasma, oral, 500 mg, Cohort 12 (500 mg BID 5/2), Cycle 1, Day 1, read-out: Mean AUC24): 14200 ng·h/mL | Cmax (human, plasma, oral, 500 mg, Cohort 12 (500 mg BID 5/2), Cycle 1, Day 1, read-out: Mean Cmax): 2390 ng/mL | AUC (human, plasma, oral, 500 mg, Cohort 12 (500 mg BID 5/2), Cycle 1, Day 8, read-out: Mean AUC24): 18600 ng·h/mL | Cmax (human, plasma, oral, 500 mg, Cohort 12 (500 mg BID 5/2), Cycle 1, Day 8, read-out: Mean Cmax): 2760 ng/mL | Cmax (human, plasma, oral, 500 mg, individual patients, total dose 500 mg, twice daily dosing, read-out: Cmax): 1230 ng/mL | AUC (human, plasma, oral, 522 mg, Cohort 8 (522 mg), Cycle 1, Day 1, read-out: Mean AUC24): 5910 ng·h/mL | Cmax (human, plasma, oral, 522 mg, Cohort 8 (522 mg), Cycle 1, Day 1, read-out: Mean Cmax): 1230 ng/mL | AUC (human, plasma, oral, 522 mg, Cohort 8 (522 mg), Cycle 1, Day 8, read-out: Mean AUC24): 13500 ng·h/mL | Cmax (human, plasma, oral, 522 mg, Cohort 8 (522 mg), Cycle 1, Day 8, read-out: Mean Cmax): 1740 ng/mL | Cmax (human, plasma, oral, 800 mg, individual patient, total dose 800 mg, twice daily dosing, read-out: Cmax): 1730 ng/mL | half-life (human, plasma, oral, cycle 1 day 1, 8.5): 16.5 h | Cmax (human, plasma, oral, cycle 1 day 1, entire sampled cohort, read-out: Mean Cmax): 731 ng/mL | half-life (human, plasma, oral, cycle 1 day 8, 42.6): 37.7 h | AUC (human, plasma, oral, entire sampled cohort, read-out: Mean AUC from 0 to 24): 3160 ng·h/mL | Tmax (human, plasma, oral, day 1 of cycle 1, dose-escalation cohorts 1 through 8, read-out: Peak (tmax)): 0.5 to 2 h | Cmax (individual patients, total dose 500 mg, twice daily dosing, read-out: Cmax): 1800 ng/mL | Cmax (individual patients, total dose 600 mg, twice daily dosing): 638 ng·h/mL and 2100 ng·h/mL and 1280 ng·h/mL and 1220 ng·h/mL and 1710 ng·h/mL | Cmax (individual patients, total dose 1000 mg, twice daily dosing): 4420 ng·h/mL and 2580 ng·h/mL and 3760 ng·h/mL and 2410 ng·h/mL and 1240 ng·h/mL
